In experiment [1] the test system is large intestinal transit. Particulars: 50 mg/kg bisacodyl given orally, rat; cited from earlier work.
The subject of experiment [2] is small bowel transit. The experiment can be described thus: Small bowel (small intestinal) transit of a charcoal marker in rats. The experiment is classed as in vivo, rat. The protocol: A study was performed to characterize and compare the effects of bisacodyl, simethicone and combinations of bisacodyl and simethicone on small bowel transit time. Small intestinal transit time was studied as a surrogate for […] in the rat. Leng-Peschlow, E., “Effect of Sennosides A+B and Bisacodyl on rat large intestine”, Pharmacology, vol. 38 (1989), 310-318 (1989). […] The prokinetic efficacy of bisacodyl in the small intestine may differ from that observed in the large intestine by Leng-Psechlow. For the small intestinal transit model a sub-therapeutic dose of 25mg/kg bisacodyl was chosen. Rats were dosed with a suspension of powdered charcoal, which served as a non-absorbable marker. The rats were also dosed with bisacodyl USP 23 (ZetaPharm, Inc.) and simethicone supplied as […]® drops and activated charcoal (Sigma Chemical). Six treatments were compared a control; simethicone 15 mg/kg; bisacodyl 25 mg/kg; and bisacodyl 25 mg/kg and simethicone at 5, 10 or 15 mg/kilogram. Dosing preparations of charcoal suspension (10 weight percent) were made freshly each day by adding dry powder to 0.5 percent methylcellulose in water and stirring. Dosing preparations were made each day by adding the appropriate quantity of bisacodyl and/or simethicone drops to the charcoal suspension. All treatments were administered orally, using the dose volume of 10 milliliters per kilogram. Sixty minutes after dosing, the rats were sacrificed and small bowel transit rate was determined by identifying the charcoal marker and measuring its distance from the pylorus.

The subject of experiment [3] is fecal output. Particulars: 10-100 mg/kg bisacodyl given orally, rat; cited from earlier work.

As for `CC(=O)Oc1ccc(C(c2ccc(OC(C)=O)cc2)c2ccccn2)cc1` [Bisacodyl, bisacodyl], in experiment [1], the large intestinal transit result is “significantly stimulated”. Besides, in experiment [2] (bisacodyl 25 mg/kg oral, rat, charcoal marker, 60 min after dosing), the Mean % traveled is on record as 80.7%. For the same molecule, in experiment [2] (compared to vehicle control, bisacodyl 25 mg/kg oral, rat), the “% Increase” value was determined as 1%. Also, the “small bowel transit compared with control” value in experiment [2] (rats treated with simethicone alone or bisacodyl alone) is “not different from control”. For the same molecule, the fecal output result in experiment [3] is “increased fecal output”.

The values are drawn from patent US20020071872A1, “Laxative composition” (priority 1999, published 2002).
